In brackets after ≈: the same amount, converted by molar mass. Like-named read-outs stand apart in the source and are kept apart here.
Legend:
mock-infected MT-4 cells = assay: Cytotoxicity based on viability of mock-infected host cells (MTT method); type: cell-based; settings: mock-infected MT-4 cells, MTT method, 4 or 5 days at 37° C.
Method: (§1) MT-4 cells were suspended in culture media at 2.5×10^5 cells/ml and infected with 1000 CCID50 (50% cell culture infective dose) of HIV. Immediately after virus infection, 100 μl of cell suspension was brought into each well of a flat-bottomed microtitray containing various concentrations of the test compounds. After 4 or 5 days incubation at 37° C., efficacy of the compounds was determined by the MTT method. Cytotoxicity of the compounds was assessed in parallel with their antiviral activity, based on viability of mock-infected host cells as determined by the MTT method.

HIV = assay: microbe, parasite or virus in culture; type: cell-based
Method: Anti-HIV activity tests in vitro of the compounds according to the present invention were performed as described in J. Med. Chem, 34, 357, 1991. Inhibition by the compounds of virus-induced cytotoxic effect in MT-4 cells was measured as follows.
as §1

[1] = Human immunodeficiency virus 1, MT4, read-out: ED50
[2] = Human immunodeficiency virus 1, MT4, HIV-infected MT-4 cells, MTT method, 4 or 5 days at 37° C., read-out: ED50 (the source's name)

CCc1c(Sc2cc(C)cc(C)c2)n(Cc2cccc(C#N)c2)c(=O)[nH]c1=O [Example 43, 1-(3-Cyanobenzyl)-5-ethyl-6-(3,5-dimethylphenyl)thio-2,4-pyrimidinedione]
CD50 (mock-infected MT-4 cells): 1.77 µg/mL | EC50 (HIV; [1]): 0.015 µg/mL (≈ 0.0383 µM) | melting point: 179 to 181 °C

CCc1c(Oc2cc(C)cc(C)c2)n(Cc2cccc(Cl)n2)c(=O)[nH]c1=O [Example 123, 1-(2-Chloropyridin-6-ylmethyl)-5-ethyl-6-(3,5-dimethylphenoxy)-2,4-pyrimidinedione]
CD50 (mock-infected MT-4 cells): 79.14 µg/mL | EC50 (HIV; [2]): 0.122 µg/mL (≈ 0.316 µM) | melting point: 199 to 201 °C

CCc1c(Oc2cc(C)cc(C)c2)n(Cc2cc(Cl)cc(Cl)c2)c(=O)[nH]c1=O [Example 81, 1-(3,5-Dichlorobenzyl)-5-ethyl-6-(3,5-dimethylphenoxy)-2,4-pyrimidinedione]
CD50 (mock-infected MT-4 cells): >100.00 µg/mL | EC50 (HIV; [1]): 1.16 µg/mL (≈ 2.77 µM) | melting point: 194 to 196 °C

CCc1c(Oc2cc(C)cc(C)c2)n(Cc2cc(C(F)(F)F)cc(C(F)(F)F)c2)c(=O)[nH]c1=O [Example 63, 1-[3,5-Bis(Trifluoromethyl)benzyl]-5-ethyl-6-(3,5-dimethyl-phenoxy)-2,4-pyrimidinedione]
CD50 (mock-infected MT-4 cells): >100.00 µg/mL | EC50 (HIV; [2]): > 100 µg/mL | melting point: 183 to 185 °C

Cc1cc(C)cc(C(=O)c2c(C(C)C)c(=O)[nH]c(=O)n2Cc2cccnc2)c1 [Example 120, 1-(Pyridin-3-ylmethyl)-5-isopropyl-6-(3,5-dimethylbenzoyl)-2,4-pyrimidinedione]
CD50 (mock-infected MT-4 cells): 8.80 µg/mL | EC50 (HIV; [1]): 0.002 µg/mL (≈ 0.0053 µM) | melting point: 178 to 180 °C

COc1cccc(Cn2c(Oc3cc(C)cc(C)c3)c(C(C)C)c(=O)[nH]c2=O)c1 [Example 28, 1-(3-Methoxybenzyl)-5-isopropyl-6-(3,5-dimethylphenoxy)-2,4-pyrimidinedione]
CD50 (mock-infected MT-4 cells): 30.60 µg/mL | EC50 (HIV; [2]): 0.006 µg/mL (≈ 0.0152 µM) | melting point: 158 to 159 °C

CCC(=O)Cn1c(Oc2cc(C)cc(C)c2)c(C(C)C)c(=O)[nH]c1=O [Example 162, 1-(2-Butanon-1-yl)-5-isopropyl-6-(3,5-dimethylphenoxy)-2,4-pyrimidinedione]
CD50 (mock-infected MT-4 cells): 41.40 µg/mL | EC50 (HIV; [1]): 0.0159 µg/mL (≈ 0.0462 µM) | melting point: 135 to 138 °C

Cc1cc(C)cc(C(=O)c2c(C(C)C)c(=O)[nH]c(=O)n2Cc2c3ccccc3cc3ccccc23)c1 [Example 102, 1-(Anthracen-9-ylmethyl)-5-isopropyl-6-(3,5-dimethyl-benzoyl)-2,4-pyrimidinedione]
CD50 (mock-infected MT-4 cells): 4.44 µg/mL | EC50 (HIV; [1]): > 4.44 µg/mL | melting point: 273 to 275 °C

Cc1cc(C)cc(Sc2c(C(C)C)c(=O)[nH]c(=O)n2Cc2ccccc2C#N)c1 [Example 38, 1-(2-Cyanobenzyl)-5-isopropyl-6-(3,5-dimethylphenyl)-thio-2,4-pyrimidinedione]
CD50 (mock-infected MT-4 cells): >100.00 µg/mL | EC50 (HIV; [2]): 0.082 µg/mL (≈ 0.202 µM) | melting point: 238 to 240 °C

CCc1c(C(=O)c2cc(C)cc(C)c2)n(Cn2nnc3ccccc32)c(=O)[nH]c1=O [Example 143, 1-(1H-benzotriazol-1-ylmethyl)-5-ethyl-6-(3,5-dimethylbenzoyl)-2,4-pyrimidinedione]
CD50 (mock-infected MT-4 cells): 9.76 µg/mL | EC50 (HIV; [2]): 0.026 µg/mL (≈ 0.0644 µM) | melting point: 226 to 229 °C

CCc1c(Oc2cc(C)cc(C)c2)n(Cc2cc(F)ccc2F)c(=O)[nH]c1=O [Example 69, 1-(2,5-Difluorobenzyl)-5-ethyl-6-(3,5-dimethylphenoxy)-2,4-pyrimidinedione]
CD50 (mock-infected MT-4 cells): >100.00 µg/mL | EC50 (HIV; [2]): 0.034 µg/mL (≈ 0.088 µM) | melting point: 231 to 233 °C

Cc1cc(C)cc(C(=O)c2c(C(C)C)c(=O)[nH]c(=O)n2Cc2cccc(C#N)c2)c1 [Example 48, 1-(3-Cyanobenzyl)-5-isopropyl-6-(3,5-dimethylbenzoyl)-2,4-pyrimidinedione]
CD50 (mock-infected MT-4 cells): 8.07 µg/mL | EC50 (HIV; [1]): 0.003 µg/mL (≈ 0.00747 µM) | melting point: 202 to 204 °C

CCc1c(C(=O)c2cc(C)cc(C)c2)n(Cc2cc(Br)cc(Br)c2)c(=O)[nH]c1=O [Example 89, 1-(3,5-Dibromobenzyl)-5-ethyl-6-(3,5-dimethylbenzoyl)-2,4-pyrimidinedione]
CD50 (mock-infected MT-4 cells): 8.75 µg/mL | EC50 (HIV; [1]): 0.09 µg/mL (≈ 0.173 µM) | melting point: 234 to 236 °C

CCc1c(Oc2cc(C)cc(C)c2)n(CC(C)=O)c(=O)[nH]c1=O [Example 157, 1-(Acetonyl)-5-ethyl-6-(3,5-dimethylphenoxy)-2,4-pyrimidinedione]
CD50 (mock-infected MT-4 cells): 3.6 µg/mL | EC50 (HIV; [1]): 0.0119 µg/mL (≈ 0.0376 µM) | melting point: 162 to 165 °C

Cc1cc(C)cc(Sc2c(C(C)C)c(=O)[nH]c(=O)n2Cc2cc(Br)cc(Br)c2)c1 [Example 86, 1-(3,5-Dibromobenzyl)-5-isopropyl-6-(3,5-dimethylphenyl)thio-2,4-pyrimidinedione]
CD50 (mock-infected MT-4 cells): 2.11 µg/mL | EC50 (HIV; [1]): 0.094 µg/mL (≈ 0.175 µM) | melting point: 225 to 226 °C

Cc1cc(C)cc(C(=O)c2c(C(C)C)c(=O)[nH]c(=O)n2Cn2nnc3ccccc32)c1 [Example 144, 1-(1H-benzotriazol-1-ylmethyl)-5-isopropyl-6-(3,5-dimethyl-benzoyl)-2,4-pyrimidinedione]
CD50 (mock-infected MT-4 cells): 8.89 µg/mL | EC50 (HIV; [2]): 0.03 µg/mL (≈ 0.0719 µM) | melting point: 246 to 247 °C

Cc1cc(C)cc(Sc2c(C(C)C)c(=O)[nH]c(=O)n2Cc2cc(Cl)cc(Cl)c2)c1 [Example 80, 1-(3,5-Dichlorobenzyl)-5-isopropyl-6-(3,5-dimethylphenyl)thio-2,4-pyrimidinedione]
CD50 (mock-infected MT-4 cells): 46.83 µg/mL | EC50 (HIV; [1]): 0.049 µg/mL (≈ 0.109 µM) | melting point: 194 to 196 °C

CCc1c(Oc2cc(C)cc(C)c2)n(Cc2occc2C(=O)OC)c(=O)[nH]c1=O [Example 153, 1-(3-Methoxycarbonyl-2-furanylmethyl)-5-ethyl-6-(3,5-dimethylphenoxy)-2,4-pyrimidinedione]
CD50 (mock-infected MT-4 cells): 12.22 µg/mL | EC50 (HIV; [2]): 0.278 µg/mL (≈ 0.698 µM) | melting point: 150 to 152 °C

CCc1c(Oc2cc(C)cc(C)c2)n(Cc2c3ccccc3cc3ccccc23)c(=O)[nH]c1=O [Example 99, 1-(Anthracen-9-ylmethyl)-5-ethyl-6-(3,5-dimethyl-phenoxy)-2,4-pyrimidinedione]
CD50 (mock-infected MT-4 cells): 4.12 µg/mL | EC50 (HIV; [1]): > 4.12 µg/mL | melting point: 243 to 245 °C

CCc1c(Oc2cc(C)cc(C)c2)n(Cc2cc(OC)cc(OC)c2)c(=O)[nH]c1=O [Example 57, 1-(3,5-Dimethoxybenzyl)-5-ethyl-6-(3,5-dimethylphenoxy)-2,4-pyrimidinedione]
CD50 (mock-infected MT-4 cells): 36.80 µg/mL | EC50 (HIV; [2]): 1.37 µg/mL (≈ 3.34 µM) | melting point: 154 to 156 °C

CCc1c(Oc2cc(C)cc(C)c2)n(Cc2ccc(OC(F)(F)F)cc2)c(=O)[nH]c1=O [Example 33, 1-(4-Trifluoromethoxybenzyl)-5-ethyl-6-(3,5-dimethyl-phenoxy)-2,4-pyrimidinedione]
CD50 (mock-infected MT-4 cells): >100.00 µg/mL | EC50 (HIV; [2]): 0.069 µg/mL (≈ 0.159 µM) | melting point: 148 to 150 °C

Cc1cc(C)cc(Oc2c(C(C)C)c(=O)[nH]c(=O)n2Cc2cccc(Br)n2)c1 [Example 128, 1-(2-Bromopyridin-6-ylmethyl)-5-isopropyl-6-(3,5-dimethylphenoxy)-2,4-pyrimidinedione]
CD50 (mock-infected MT-4 cells): 48.27 µg/mL | EC50 (HIV; [2]): 0.079 µg/mL (≈ 0.178 µM) | melting point: 228 to 230 °C

Cc1cc(C)cc(C(=O)c2c(C(C)C)c(=O)[nH]c(=O)n2Cc2cc(F)cc(F)c2)c1 [Example 78, 1-(3,5-Difluorobenzyl)-5-isopropyl-6-(3,5-dimethylbenzoyl)-2,4-pyrimidinedione]
CD50 (mock-infected MT-4 cells): 7.1 µg/mL | EC50 (HIV; [2]): 0.0033 µg/mL (≈ 0.008 µM) | melting point: 207 to 209 °C

CCc1c(Sc2cc(C)cc(C)c2)n(Cc2cc(F)ccc2F)c(=O)[nH]c1=O [Example 67, 1-(2,5-Difluorobenzyl)-5-ethyl-6-(3,5-dimethylphenyl)thio-2,4-pyrimidinedione]
CD50 (mock-infected MT-4 cells): 12.40 µg/mL | EC50 (HIV; [2]): 0.008 µg/mL (≈ 0.0199 µM) | melting point: 214 to 216 °C

Cc1cc(C)cc(Cn2c(Sc3cc(C)cc(C)c3)c(C(C)C)c(=O)[nH]c2=O)c1 [Example 50, 1-(3,5-Dimethylbenzyl)-5-isopropyl-6-(3,5-dimethylphenyl)thio-2,4-pyrimidinedione]
CD50 (mock-infected MT-4 cells): 8.70 µg/mL | EC50 (HIV; [1]): 0.015 µg/mL (≈ 0.0367 µM) | melting point: 164 to 166 °C

CCc1c(Oc2cc(C)cc(C)c2)n(Cc2nc3ccccc3o2)c(=O)[nH]c1=O [Example 147, 1-(Benzoxazol-2-ylmethyl)-5-ethyl-6-(3,5-dimethylphenoxy)-2,4-pyrimidinedione]
CD50 (mock-infected MT-4 cells): 40.20 µg/mL | EC50 (HIV; [1]): 0.061 µg/mL (≈ 0.156 µM) | melting point: 121 to 123 °C

Cc1cc(C)cc(C(=O)c2c(C(C)C)c(=O)[nH]c(=O)n2Cc2ccc(OC(F)(F)F)cc2)c1 [Example 36, 1-(4-Trifluoromethoxybenzyl)-5-isopropyl-6-(3,5-dimethyl-benzoyl)-2,4-pyrimidinedione]
CD50 (mock-infected MT-4 cells): 7.88 µg/mL | EC50 (HIV; [2]): 0.005 µg/mL (≈ 0.0109 µM) | melting point: 79 to 81 °C

CCc1c(Sc2cc(C)cc(C)c2)n(Cc2cc(C)cc(C)c2)c(=O)[nH]c1=O [Example 49, 1-(3,5-Dimethylbenzyl)-5-ethyl-6-(3,5-dimethylphenyl)thio-2,4-pyrimidinedione]
CD50 (mock-infected MT-4 cells): 7.48 µg/mL | EC50 (HIV; [1]): 0.014 µg/mL (≈ 0.0355 µM) | melting point: 180 to 182 °C

CCc1c(C(=O)c2cc(C)cc(C)c2)n(Cc2ccccc2)c(=O)[nH]c1=O [Example 23, 1-Benzyl-5-ethyl-6-(3,5-dimethylbenzoyl)-2,4-pyrimidine-dione]
CD50 (mock-infected MT-4 cells): 8.00 µg/mL | EC50 (HIV; [2]): 0.0016 µg/mL (≈ 0.00441 µM) | melting point: 202 to 204 °C

Reference: patent US6987114B1, “Antiviral pyrimidinedione derivatives and process for the preparation thereof” (Samjin Pharmaceutical Co., Ltd, priority 1999, dated 2006)
